According to the supplement of paper PMC10307832:

Columns and labels:
Test in all cases: relative viability (nuclei count vs DMSO), 5 days (fraction); higher = more cells survive
BEN = system: BEN
Summary of the method: (§1)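 After 5 days of treatment, lung cancer cells in 1536-well plates were fixed and stained in a single step (final 0.05% Triton X-100, 1% formaldehyde, 1 ug/ml Hoechst) and their nuclei counted on 4× images. Treatment had been applied by pin tool the day after seeding as one drug alone or as a fixed anchor-drug dose with five library-drug doses (not always all listed) in √10 steps. Relative viability is the nuclei count of treated wells divided by that of vehicle wells, and values are medians of duplicate plates.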

CAL-12T = system: CAL-12T
Summary of the method: as §1

COR-L 105 = system: COR-L 105
Summary of the method: as §1

COR-L23 = system: COR-L23
Summary of the method: as §1

HARA = system: HARA
Summary of the method: as §1

HCC-15 = system: HCC-15
Summary of the method: as §1

HCC-366 = system: HCC-366
Summary of the method: as §1

HCC-44 = system: HCC-44
Summary of the method: as §1

HCC-827 = system: HCC-827
Summary of the method: as §1

HOP-62 = system: HOP-62
Summary of the method: as §1

LC-2-ad = system: LC-2-ad
Summary of the method: as §1

LCLC-97TM1 = system: LCLC-97TM1
Summary of the method: as §1

LU99A = system: LU99A
Summary of the method: as §1

LXF-289 = system: LXF-289
Summary of the method: as §1

NCI-H1993 = system: NCI-H1993
Summary of the method: as §1

NCI-H2009 = system: NCI-H2009
Summary of the method: as §1

NCI-H2087 = system: NCI-H2087
Summary of the method: as §1

NCI-H2126 = system: NCI-H2126
Summary of the method: as §1

NCI-H2170 = system: NCI-H2170
Summary of the method: as §1

NCI-H727 = system: NCI-H727
Summary of the method: as §1

PC-14 = system: PC-14
Summary of the method: as §1

PC-3 [JPC-3] = system: PC-3 [JPC-3]
Summary of the method: as §1

SK-MES-1 = system: SK-MES-1
Summary of the method: as §1

O=C(O)CCCCC(CCSCc1ccccc1)SCc1ccccc1 (stereo not given) [CPI-613] + CS(=O)(=O)CCNCc1ccc(-c2ccc3ncnc(Nc4ccc(OCc5cccc(F)c5)c(Cl)c4)c3c2)o1 [Lapatinib] (partner 2 µM)
relative viability (BEN; first compound 5 µM): 0.673 | relative viability (BEN; first compound 15.81 µM): 0.577 | relative viability (BEN; first compound 50 µM): 0.526 | relative viability (BEN; first compound 158.11 µM): 0.502 | relative viability (BEN; first compound 500 µM): 0.624 | relative viability (CAL-12T; first compound 5 µM): 0.605 | relative viability (CAL-12T; first compound 15.81 µM): 0.532 | relative viability (CAL-12T; first compound 50 µM): 0.603 | relative viability (CAL-12T; first compound 158.11 µM): 0.551 | relative viability (CAL-12T; first compound 500 µM): 0.56 | relative viability (COR-L 105; first compound 5 µM): 0.364 | relative viability (COR-L 105; first compound 15.81 µM): 0.323 | relative viability (COR-L 105; first compound 50 µM): 0.377 | relative viability (COR-L 105; first compound 158.11 µM): 0.291 | relative viability (COR-L 105; first compound 500 µM): 0.263 | relative viability (COR-L23; first compound 5 µM): 0.826 | relative viability (COR-L23; first compound 15.81 µM): 0.969 | relative viability (COR-L23; first compound 50 µM): 0.746 | relative viability (COR-L23; first compound 158.11 µM): 0.459 | relative viability (COR-L23; first compound 500 µM): 0.0098 | relative viability (HARA; first compound 5 µM): 0.702 | relative viability (HARA; first compound 15.81 µM): 0.678 | relative viability (HARA; first compound 50 µM): 0.792 | relative viability (HARA; first compound 158.11 µM): 0.521 | relative viability (HARA; first compound 500 µM): 0.0307 | relative viability (HCC-15; first compound 5 µM): 0.785 | relative viability (HCC-15; first compound 15.81 µM): 0.801 | relative viability (HCC-15; first compound 50 µM): 0.682 | relative viability (HCC-15; first compound 158.11 µM): 0.599 | relative viability (HCC-15; first compound 500 µM): 0.285 | relative viability (HCC-366; first compound 5 µM): 0.959 | relative viability (HCC-366; first compound 15.81 µM): 1.02 | relative viability (HCC-366; first compound 50 µM): 1 | relative viability (HCC-366; first compound 158.11 µM): 0.284 | relative viability (HCC-366; first compound 500 µM): 0.0085 | relative viability (HCC-44; first compound 5 µM): 0.991 | relative viability (HCC-44; first compound 15.81 µM): 0.937 | relative viability (HCC-44; first compound 50 µM): 1.04 | relative viability (HCC-44; first compound 158.11 µM): 0.838 | relative viability (HCC-44; first compound 500 µM): 0.0306 | relative viability (HCC-827; first compound 5 µM): 0.212 | relative viability (HCC-827; first compound 15.81 µM): 0.181 | relative viability (HCC-827; first compound 50 µM): 0.196 | relative viability (HCC-827; first compound 158.11 µM): 0.173 | relative viability (HCC-827; first compound 500 µM): 0.0605 | relative viability (HOP-62; first compound 5 µM): 1.06 | relative viability (HOP-62; first compound 15.81 µM): 0.855 | relative viability (HOP-62; first compound 50 µM): 0.935 | relative viability (HOP-62; first compound 158.11 µM): 0.804 | relative viability (HOP-62; first compound 500 µM): 0.107 | relative viability (LC-2-ad; first compound 5 µM): 0.746 | relative viability (LC-2-ad; first compound 15.81 µM): 0.859 | relative viability (LC-2-ad; first compound 50 µM): 0.868 | relative viability (LC-2-ad; first compound 158.11 µM): 0.255 | relative viability (LC-2-ad; first compound 500 µM): 0.0059 | relative viability (LCLC-97TM1; first compound 5 µM): 1.19 | relative viability (LCLC-97TM1; first compound 15.81 µM): 0.906 | relative viability (LCLC-97TM1; first compound 50 µM): 1.07 | relative viability (LCLC-97TM1; first compound 158.11 µM): 1.01 | relative viability (LCLC-97TM1; first compound 500 µM): 0.0553 | relative viability (LU99A; first compound 5 µM): 0.937 | relative viability (LU99A; first compound 15.81 µM): 0.918 | relative viability (LU99A; first compound 50 µM): 0.887 | relative viability (LU99A; first compound 158.11 µM): 0.608 | relative viability (LU99A; first compound 500 µM): 0.0424 | relative viability (LXF-289; first compound 5 µM): 0.842 | relative viability (LXF-289; first compound 15.81 µM): 0.881 | relative viability (LXF-289; first compound 50 µM): 0.835 | relative viability (LXF-289; first compound 158.11 µM): 0.585 | relative viability (LXF-289; first compound 500 µM): 0.0115 | relative viability (NCI-H1993; first compound 5 µM): 0.777 | relative viability (NCI-H1993; first compound 15.81 µM): 0.706 | relative viability (NCI-H1993; first compound 50 µM): 0.774 | relative viability (NCI-H1993; first compound 158.11 µM): 0.567 | relative viability (NCI-H1993; first compound 500 µM): 0.41 | relative viability (NCI-H2009; first compound 5 µM): 0.996 | relative viability (NCI-H2009; first compound 15.81 µM): 0.897 | relative viability (NCI-H2009; first compound 50 µM): 0.771 | relative viability (NCI-H2009; first compound 158.11 µM): 0.18 | relative viability (NCI-H2009; first compound 500 µM): 0.0119 | relative viability (NCI-H2087; first compound 5 µM): 1.06 | relative viability (NCI-H2087; first compound 15.81 µM): 0.934 | relative viability (NCI-H2087; first compound 50 µM): 0.72 | relative viability (NCI-H2087; first compound 158.11 µM): 0.525 | relative viability (NCI-H2087; first compound 500 µM): 0.012 | relative viability (NCI-H2126; first compound 5 µM): 0.723 | relative viability (NCI-H2126; first compound 15.81 µM): 0.754 | relative viability (NCI-H2126; first compound 50 µM): 0.758 | relative viability (NCI-H2126; first compound 158.11 µM): 0.612 | relative viability (NCI-H2126; first compound 500 µM): 0.738 | relative viability (NCI-H2170; first compound 5 µM): 0.259 | relative viability (NCI-H2170; first compound 15.81 µM): 0.273 | relative viability (NCI-H2170; first compound 50 µM): 0.249 | relative viability (NCI-H2170; first compound 158.11 µM): 0.261 | relative viability (NCI-H2170; first compound 500 µM): 0.188 | relative viability (NCI-H727; first compound 5 µM): 0.739 | relative viability (NCI-H727; first compound 15.81 µM): 0.609 | relative viability (NCI-H727; first compound 50 µM): 0.683 | relative viability (NCI-H727; first compound 158.11 µM): 0.673 | relative viability (NCI-H727; first compound 500 µM): 0.0973 | relative viability (PC-14; first compound 5 µM): 0.347 | relative viability (PC-14; first compound 15.81 µM): 0.307 | relative viability (PC-14; first compound 50 µM): 0.303 | relative viability (PC-14; first compound 158.11 µM): 0.251 | relative viability (PC-14; first compound 500 µM): 0.259 | relative viability (PC-3 [JPC-3]; first compound 5 µM): 0.493 | relative viability (PC-3 [JPC-3]; first compound 15.81 µM): 0.439 | relative viability (PC-3 [JPC-3]; first compound 50 µM): 0.425 | relative viability (PC-3 [JPC-3]; first compound 158.11 µM): 0.415 | relative viability (PC-3 [JPC-3]; first compound 500 µM): 0.407 | relative viability (SK-MES-1; first compound 5 µM): 0.458 | relative viability (SK-MES-1; first compound 15.81 µM): 0.399 | relative viability (SK-MES-1; first compound 50 µM): 0.428 | relative viability (SK-MES-1; first compound 158.11 µM): 0.408 | relative viability (SK-MES-1; first compound 500 µM): 0.458
